From ChEMBL document CHEMBL4402526, “Design and Synthesis of Fungal-Selective Resorcylate Aminopyrazole Hsp90 Inhibitors” (J Med Chem, 2020) come the findings set out here.

Activity calls are given as the source filed them.

The test system of series [1] is Cryptococcus neoformans. The series is described as follows: Antifungal activity against Cryptococcus neoformans H99 assessed as fungal growth inhibition at <= […] uM measured after 48 hrs by resazurin assay. It is filed as functional, organism-based.
The nature of series [2]: Displacement of Cy3-labeled geldanamycin from HSP90 in Candida albicans clinical isolate 2 cell lysate measured after […] by fluorescence polarization assay. It is filed as subcellular. In general terms: Polarisation of emitted light reports the rotation of a fluorescent probe.
Series [3] deals with Candida albicans. The series is described as follows: Antifungal activity against Candida albicans clinical isolate 2 assessed as fungal growth inhibition at <= […] uM measured after 48 hrs by resazurin assay. It is filed as functional, organism-based.
Series [4] concerns Candida albicans. The series is described as follows: Fungicidal activity against Candida albicans clinical isolate 2 incubated for 48 hrs in presence of fluconazole followed by replating on YDP agar plate and measured after 24 hrs. It is filed as functional, organism-based.
Series [5] is described as follows: Microsomal stability in CD-1 mouse liver microsomes assessed as parent compound remaining at 1 uM measured at 60 mins by LC-MS/MS analysis. The series is classed as ADME, Microsome. The settings on record: read-out: Stability. (Microsomes from liver hold many membrane-bound enzymes, among them those of drug oxidation.)
Series [6] is described as follows: Half life in CD-1 mouse liver microsomes at 1 uM measured up to 120 mins by LC-MS/MS analysis.
Series [7] has as its system Cryptococcus neoformans. Description: Antifungal activity against Cryptococcus neoformans H99 assessed as fungal growth inhibition at < […] uM measured after 48 hrs by resazurin assay. The series is classed as functional, organism-based. A general note: Alamar Blue is a resazurin reagent that responds to reducing activity.
A short description of series [8]: Selectivity index, ratio of kd for binding affinity to recombinant human Hsp90 NBD expressed in Escherichia coli Rosetta2 to Kd for binding affinity to recombinant Candida albicans clinical isolate 2 HSP90 NBD (E7 to K218 residues) expressed in Escherichia coli Rosetta2.
The test system of series [9] is Candida albicans. Description: Antifungal activity against Candida albicans clinical isolate 2 assessed as fungal growth inhibition measured after 48 hrs in presence of fluconazole by resazurin assay. The series is classed as functional. The settings on record: clinical isolate 2, 48 h.

For `CCN(CC)C(=O)c1c(O)cc(O)cc1Nc1cc(-c2ccccc2)nn1Cc1ccc(OC)cc1`, the result in the series with Cryptococcus neoformans [1] and in the series with Candida albicans [3] was Active. In addition, the EC50 in series [2] is more than 10 µM.

On to `Cc1cc(Nc2cc(O)cc(O)c2C(=O)N2Cc3ccccc3C2)n(Cc2ccccc2Cl)n1`, for which the result in the series with Candida albicans [4], in the series with Cryptococcus neoformans [1] and in the series with Candida albicans [3] was Active.

For `COc1cccc(-c2cc(Nc3cc(O)cc(O)c3C(=O)N3Cc4cn[nH]c4C3)n(C)n2)c1`, the remaining at 1 h, 1 µM in series [5] was 7%. Besides, the result in the series with Cryptococcus neoformans [1] and in the series on Candida albicans [3] was Active.

With `Cn1nc(-c2ccc(OC(F)(F)F)cc2)cc1Nc1cc(O)cc(O)c1C(=O)N1Cc2cn[nH]c2C1`, in series [5], the remaining at 1 h, 1 µM was found to be 20.6%. The result in the series on Cryptococcus neoformans [1] and in the series on Candida albicans [3] was Active.

Consider `COc1ccc(Cn2ncc(C)c2Nc2cc(O)cc(O)c2C(=O)N2Cc3ccccc3C2)cc1`, for which the outcome with Candida albicans [4], in the series on Cryptococcus neoformans [1] and in the series with Candida albicans [3] was Active.

Regarding `CC(C)c1ccc(Cn2nccc2Nc2cc(O)cc(O)c2C(=O)N2Cc3ccccc3C2)cc1`, the remaining at 1 h, 1 µM in series [5] came out at 1.8%. The result in the series on Cryptococcus neoformans [1] and in the series on Candida albicans [3] was Active. The compound further came in with a half-life at 2 h, 1 µM in series [6] of 3.1 min.

As for `Cc1ccccc1-c1cc(Nc2cc(O)cc(O)c2C(=O)N2Cc3ccccc3C2)n(C)n1`, the outcome in the series on Cryptococcus neoformans [1], in the series on Cryptococcus neoformans [7] and in the series on Candida albicans [3] was Active.

Take `COc1ccc(Cn2nc(C)cc2Nc2cc(O)cc(O)c2C(=O)N(C)CC2CC2)cc1`: the outcome in the series on Cryptococcus neoformans [1] and in the series on Candida albicans [3] was Active. In [2], the EC50 was more than 9 µM.

Regarding `COc1ccc(Cn2nc(C)cc2Nc2cc(O)cc(O)c2C(=O)N(C)Cc2ccccc2)cc1`, the result in the series on Cryptococcus neoformans [1] and in the series on Candida albicans [3] was Active. The compound further had an EC50 in [2] of more than 6 µM.

`COc1ccc(Cn2nc(-c3ccccc3)cc2Nc2cc(O)cc(O)c2C(=O)N(C)CC2CC2)cc1`: the result in the series with Cryptococcus neoformans [1] and with Candida albicans [3] was Active. Besides, in [2], the concentration giving a half-maximal response (EC50) was more than 9 µM.

Turning to `COc1cccc(-c2cc(Nc3cc(O)cc(O)c3C(=O)N3Cc4ccccc4C3)n(C)n2)c1`, the remaining at 1 h, 1 µM in series [5] came to 0%. Moreover, the outcome in the series with Cryptococcus neoformans [1] and in the series on Candida albicans [3] was Active. In [6], this compound showed a half-life at 2 h, 1 µM of 3.15 min.

Consider `Cn1nc(-c2ccc(OC(F)(F)F)cc2)cc1Nc1cc(O)cc(O)c1C(=O)N1Cc2cccnc2C1`, for which, in [5], the remaining at 1 h, 1 µM amounted to 3.9%. Further, the outcome with Cryptococcus neoformans [1] and with Candida albicans [3] was Active.

With `COc1ccc(CO\N=C2/C=C/C=C\[C@H]3O[C@@H]3C[C@@H](C)OC(=O)c3c(O)cc(O)cc3C2)cc1`, the Selectivity Index in series [8] is more than 25.

Regarding `COc1cccc(-c2cc(Nc3cc(O)cc(O)c3C(=O)N3Cc4cccnc4C3)n(C)n2)c1`, in series [5], the remaining at 1 h, 1 µM was determined as 0%. Moreover, the result in the series on Cryptococcus neoformans [1] and in the series on Candida albicans [3] was Active. The half-life at 2 h, 1 µM in [6] amounted to 3.44 min.

As for `COc1ccc(Cn2nc(C(C)(C)C)cc2Nc2cc(O)cc(O)c2C(=O)N2Cc3ccccc3C2)cc1`, the outcome with Cryptococcus neoformans [1] and in the series with Candida albicans [3] was Active.

With `Cn1nc(-c2ccc(C(C)(C)C)cc2)cc1Nc1cc(O)cc(O)c1C(=O)N1Cc2cn[nH]c2C1`, in series [5], the remaining at 1 h, 1 µM is 0.5%. Besides, the outcome with Cryptococcus neoformans [1] and with Candida albicans [3] was Active. The same compound gave a half-life at 2 h, 1 µM in series [6] of 6.44 min.

With `Cc1cccc(-c2cc(Nc3cc(O)cc(O)c3C(=O)N3Cc4cn[nH]c4C3)n(C)n2)c1`, the remaining at 1 h, 1 µM in series [5] is 1.8%. Also, the outcome with Cryptococcus neoformans [1] and with Candida albicans [3] was Active. The half-life at 2 h, 1 µM in series [6] was determined as 9.38 min.

With `CC(C)Cn1nc(-c2ccccc2)cc1Nc1cc(O)cc(O)c1C(=O)N1Cc2cn[nH]c2C1`, the result with Cryptococcus neoformans [1] and in the series with Candida albicans [3] was Active.

With `Cn1nc(-c2ccc(OC(F)(F)F)cc2)cc1Nc1cc(O)cc(O)c1C(=O)N1Cc2ccccc2C1`, the result with Cryptococcus neoformans [1] and in the series on Candida albicans [3] was Active. Besides, the MIC in the series on Candida albicans [9] is 12.5 µM.

`COc1ccc(-c2cc(Nc3cc(O)cc(O)c3C(=O)N3Cc4ccccc4C3)n(C)n2)cc1`: the result with Cryptococcus neoformans [1] and in the series with Candida albicans [3] was Active.

Turning to `O=C(c1c(O)cc(O)cc1Nc1ccnn1-c1ccccc1)N1Cc2ccccc2C1`, the result in the series on Cryptococcus neoformans [1] and in the series on Candida albicans [3] was Active.

Regarding `COc1ccc(Cn2ncc(Cc3ccccc3)c2Nc2cc(O)cc(O)c2C(=O)N2Cc3ccccc3C2)cc1`, the result with Cryptococcus neoformans [1] and with Candida albicans [3] was Active.

Consider `COc1ccc(Cn2nc(-c3ccccc3)cc2Nc2cc(O)cc(O)c2C(=O)N2Cc3ccccc3C2)cc1`, for which the outcome with Candida albicans [4], in the series with Cryptococcus neoformans [1] and in the series with Candida albicans [3] was Active.

Consider `O=C(c1c(O)cc(O)cc1Nc1ccnn1Cc1cccnc1)N1Cc2cccnc2C1`, for which the result in the series with Cryptococcus neoformans [1] and with Candida albicans [3] was Active.

As to `CC(C)c1cc(Nc2cc(O)cc(O)c2C(=O)N2Cc3cccnc3C2)n(C)n1`, the result in the series with Cryptococcus neoformans [1] and in the series on Candida albicans [3] was Active.

As to `CC(C)c1ccc(Cn2nccc2Nc2cc(O)cc(O)c2C(=O)N2Cc3cn[nH]c3C2)cc1`, the result in the series on Cryptococcus neoformans [1] and with Candida albicans [3] was Active.

For the compound `Cn1nc(C2CCCCC2)cc1Nc1cc(O)cc(O)c1C(=O)N1Cc2ccccc2C1`, the outcome in the series with Cryptococcus neoformans [1] and in the series with Candida albicans [3] was Active.

As to `Cn1nc(C2CCCCC2)cc1Nc1cc(O)cc(O)c1C(=O)N1Cc2cccnc2C1`, the outcome in the series with Cryptococcus neoformans [1] and with Candida albicans [3] was Active.

For `Cn1nc(C2CCCCC2)cc1Nc1cc(O)cc(O)c1C(=O)N1Cc2cn[nH]c2C1`, in [5], the remaining at 1 h, 1 µM was determined as 0.06%. The outcome in the series on Cryptococcus neoformans [1] and in the series with Candida albicans [3] was Active. In series [6], this compound came in with a half-life at 2 h, 1 µM of 2.74 min.

For `O=C(c1c(O)cc(O)cc1Nc1ccnn1CC1CCCCC1)N1Cc2cccnc2C1`, the outcome with Cryptococcus neoformans [1] and with Candida albicans [3] was Active.

Regarding `Cc1cccc(-c2cc(Nc3cc(O)cc(O)c3C(=O)N3Cc4ccccc4C3)n(C)n2)c1`, the result in the series with Cryptococcus neoformans [1] and in the series on Candida albicans [3] was Active.

With `CCc1cc(Nc2cc(O)cc(O)c2C(=O)N2Cc3cccnc3C2)n(Cc2ccc(OC)cc2)n1`, the result with Cryptococcus neoformans [1] and in the series on Candida albicans [3] was Active.

With `COc1ccc(Cn2nc(-c3ccccc3)cc2Nc2cc(O)cc(O)c2C(=O)N2CCCC2)cc1`, the result in the series with Cryptococcus neoformans [1] and in the series on Candida albicans [3] was Active.

One may read the EC50 as the concentration needed to bring the measured effect to its halfway point. Lower therefore signals an effect from little substance. In general, half-life refers to the time needed for the level to fall by half in the phase considered. The low end stands for fast loss, the high end for slow loss. The term MIC denotes the least concentration at which growth counts as inhibited.
